# Measured values published in patent US10968210B2, “Diamino-alkylamino-linked arylsulfonamide compounds with selective activity in voltage-gated sodium channels” (Merck Sharp & Dohme Corp., priority 2016, dated 2021).
# Target: T1, human Nav 1.7 channels stably expressed in HEK 293 cells (Homo sapiens, UniProt Q15858)
# T1 construct: expressed in transfected cells; host or cells: HEK 293
# Test: IonWorks Quattro automated patch-clamp, inactivated state block of Nav 1.7
# Assay type: cell-based
# Conditions: double-pulse protocol, HEK 293 cells held at -100 mV, read-out: potency for the Nav 1.7 sodium ion channel (IC50, IonWorks)
# Method: IonWorks® Experimental Procedure
# Compounds were tested on human Nav 1.7 and Nav 1.5 channels stably expressed in HEK 293 cells. Sodium current measurements on IonWorks Quattro: An automated patch-clamp assay on the IonWorks Quattro platform (Molecular Devices) was used to measure state-dependent inhibition of human Nav 1.7 and Nav 1.5 channels. Cells were sealed on a planar substrate using the Population Patch Plate (PPC) technology. Electrical access was obtained using both nystatin and amphotericin. A double-pulse protocol was used for the determination of IC50 values for inactivated state block. Nav 1.7 and Nav 1.5 expressing cells were voltage clamped at −100 mV and −110 mV, respectively. A depolarizing prepulse to −10 mV (Nav 1.7) or −30 mV (Nav 1.5) for 1000 ms followed by a 10 ms repolarization to ˜100 mV (Nav1.7) or −110 mV (Nav 1.5) was given to generate fractional channel inactivation of ˜50%, followed by a 10 ms test pulse to −10 mV (Nav 1.7) or −30 mV (Nav 1.5) to measure peak current in control conditions and after compound addition. The following recording solutions were used (mM). External: 150 NaCl, 2 CaCl2, 5 KCl, 1 Mg Cl2, 10 HEPES, 12 Dextrose; internal: 120 CsF, 30 CsCl, 10 EGTA, 5 HEPES, 5 NaF, 2 MgCl2.
# For all electrophysiology experiments, offline analysis was used to determine percent inhibition as a function of drug concentration. IC50 values were determined by fitting to the Hill equation.
# The various compounds in Examples 1 through 4 and Tables 1 through 3 exemplified above were assayed for activity and selectivity using the foregoing IonWorks® technique. The results are reported in the following paragraph in a format expressing the identification of the compound with reference Example and compound (e.g. Ex 1-9 is Example 1, compound 9) followed by the observed potency in nM and the ratio of Nav1.7 potency: Nav1.5 potency as described here. Thus, Ex1-9: 1.7=65/ratio=641 identifies compound Example 1, compound 9 as having 65 nM potency for the Nav 1.7 sodium ion channel (as measured by IonWorks®) and a ratio of 641 Nav 1.7: Nav 1.5 potency, determined by IonWorks® measurement.
# T1 sequence (Q15858 whole entry): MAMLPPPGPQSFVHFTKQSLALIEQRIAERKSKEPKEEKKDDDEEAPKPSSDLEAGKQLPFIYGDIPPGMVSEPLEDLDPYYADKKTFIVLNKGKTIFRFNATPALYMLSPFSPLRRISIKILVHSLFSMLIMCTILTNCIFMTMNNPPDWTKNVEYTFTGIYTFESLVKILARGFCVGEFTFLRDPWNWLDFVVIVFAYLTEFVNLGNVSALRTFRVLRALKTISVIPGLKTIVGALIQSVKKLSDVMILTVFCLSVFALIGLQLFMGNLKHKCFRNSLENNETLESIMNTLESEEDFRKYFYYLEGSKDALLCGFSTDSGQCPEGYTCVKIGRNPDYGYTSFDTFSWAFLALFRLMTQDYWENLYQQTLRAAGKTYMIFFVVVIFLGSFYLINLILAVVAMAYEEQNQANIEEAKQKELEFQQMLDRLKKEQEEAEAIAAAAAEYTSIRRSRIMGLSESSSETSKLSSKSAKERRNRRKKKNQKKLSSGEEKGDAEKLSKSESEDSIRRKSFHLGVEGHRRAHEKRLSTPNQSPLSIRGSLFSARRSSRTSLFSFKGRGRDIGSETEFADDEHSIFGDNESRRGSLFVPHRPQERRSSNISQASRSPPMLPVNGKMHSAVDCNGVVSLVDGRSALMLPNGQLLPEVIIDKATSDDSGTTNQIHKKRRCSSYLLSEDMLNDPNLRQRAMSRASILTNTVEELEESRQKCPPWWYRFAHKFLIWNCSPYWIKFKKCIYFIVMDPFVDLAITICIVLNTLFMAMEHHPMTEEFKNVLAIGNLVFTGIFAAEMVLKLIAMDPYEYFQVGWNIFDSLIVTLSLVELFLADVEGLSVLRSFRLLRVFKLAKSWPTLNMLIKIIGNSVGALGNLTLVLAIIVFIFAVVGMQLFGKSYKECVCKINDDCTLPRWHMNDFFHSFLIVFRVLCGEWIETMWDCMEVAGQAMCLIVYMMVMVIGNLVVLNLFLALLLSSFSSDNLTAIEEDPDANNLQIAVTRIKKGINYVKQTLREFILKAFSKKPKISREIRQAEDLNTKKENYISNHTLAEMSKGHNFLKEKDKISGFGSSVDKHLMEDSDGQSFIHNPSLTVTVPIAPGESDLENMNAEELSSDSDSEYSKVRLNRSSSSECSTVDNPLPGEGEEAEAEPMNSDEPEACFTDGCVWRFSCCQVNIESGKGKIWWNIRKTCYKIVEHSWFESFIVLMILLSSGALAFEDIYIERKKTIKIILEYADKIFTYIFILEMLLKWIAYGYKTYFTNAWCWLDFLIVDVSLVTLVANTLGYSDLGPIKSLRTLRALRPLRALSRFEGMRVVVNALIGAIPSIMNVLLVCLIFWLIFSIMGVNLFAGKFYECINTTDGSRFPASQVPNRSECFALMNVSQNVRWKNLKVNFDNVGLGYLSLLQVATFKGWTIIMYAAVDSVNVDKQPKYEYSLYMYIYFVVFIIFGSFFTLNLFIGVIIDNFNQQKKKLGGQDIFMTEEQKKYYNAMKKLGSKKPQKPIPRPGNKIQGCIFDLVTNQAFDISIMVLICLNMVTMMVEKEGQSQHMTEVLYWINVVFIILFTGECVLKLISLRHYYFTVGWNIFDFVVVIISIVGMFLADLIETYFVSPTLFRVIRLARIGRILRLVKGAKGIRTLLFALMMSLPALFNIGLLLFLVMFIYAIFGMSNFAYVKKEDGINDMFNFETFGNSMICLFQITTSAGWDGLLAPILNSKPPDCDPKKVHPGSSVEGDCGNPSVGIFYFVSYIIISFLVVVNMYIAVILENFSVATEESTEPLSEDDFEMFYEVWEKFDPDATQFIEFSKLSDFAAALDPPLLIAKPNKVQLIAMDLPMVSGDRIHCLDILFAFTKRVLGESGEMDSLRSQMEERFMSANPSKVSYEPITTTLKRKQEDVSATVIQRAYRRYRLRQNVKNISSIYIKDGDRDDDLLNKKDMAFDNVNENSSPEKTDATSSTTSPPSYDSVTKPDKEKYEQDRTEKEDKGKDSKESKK
row,IC50,Structure (SMILES)
1,21 nM,"O=S(=O)(Nc1nccs1)c1cc(Cl)c(NCCCCNCC2NCc3ccccc32)cc1F (single isomer, unassigned) [Ex 2-4 Enantiomer B, (S or R)-5-chloro-2-fluoro-4-((4-((isoindolin-1-ylmethyl)amino)butyl)amino)-N-(thiazol-2-yl)benzenesulfonamide]"
2,29 nM,"O=S(=O)(Nc1cccc(F)n1)c1cc(Cl)c(NCCCCCNC[C@@H]2CCCN2)cc1F [Ex 9-2, (S)-5-chloro-2-fluoro-N-(6-fluoropyridin-2-yl)-4-((5-((pyrrolidin-2-ylmethyl)amino)pentyl)amino)benzenesulfonamide]"
3,16 nM,"N#Cc1cc(S(=O)(=O)Nc2ncns2)c(F)cc1NCCCCN[C@@H]1CCNC1 [Ex 16-45, 5-cyano-2-fluoro-4-({4-[(3R)-pyrrolidin-3-yl-amino]butyl}amino)-N-1,2,4-thiadiazol-5-ylbenzene-sulfonamide]"
4,10 nM,"NCC1CN(CCCCNc2cc(F)c(S(=O)(=O)Nc3ncns3)cc2Br)C1 [Ex 16-37, 4-((4-(3-(aminomethyl)azetidin-1-yl)butyl)amino)-5-bromo-2-fluoro-N-(1,2,4-thiadiazol-5-yl)benzenesulfonamide]"
5,31 nM,"NCC1CCN1CCCCNc1cc(F)c(S(=O)(=O)Nc2nccs2)cc1Cl (single isomer, unassigned) [Ex 16-52, (R or S)-4-({4-[2-(aminomethyl)-azetidin-1-yl]butyl}amino)-5-chloro-2-fluoro-N-1,3-thiazol-2-ylbenzene-sulfonamide]"
6,13 nM,"O=S(=O)(Nc1nccs1)c1cc(Cl)c(NCCCCNCC2Cc3ccccc3CN2)cc1F (stereo not shown) [Ex 1-9, 5-chloro-2-fluoro-4-({4-[(1,2,3,4-tetrahydroisoquinolin-3-ylmethyl)amino]butyl}amino)-N-1,3-thiazol-2-ylbenzenesulfonamide]"
7,30 nM,"C[C@H](CNC1CCOCC1)NCCCCNc1cc(F)c(S(=O)(=O)Nc2nccs2)cc1Cl [Ex 1-26, 5-chloro-2-fluoro-4-[(4-{[(1R)-1-methyl-2-(tetrahydro-2H-pyran-4-ylamino)ethyl]amino}butyl)amino]-N-1,3-thiazol-2-ylbenzenesulfonamide]"
8,30 nM,"NCC1CCCN(CCCCNc2cc(F)c(S(=O)(=O)Nc3nccs3)cc2Cl)C1 (stereo not shown) [Ex 1-46, 4-({4-[3-(aminomethyl)piperidin-1-yl]butyl}amino)-5-chloro-2-fluoro-N-1,3-thiazol-2-ylbenzenesulfonamide]"
9,29 nM,"O=S(=O)(Nc1nccs1)c1cc(Cl)c(NCCCCNCC2NCc3ccccc32)cc1F (single isomer, unassigned) [Ex 2-4 Enantiomer A, (R or S)-5-chloro-2-fluoro-4-((4-((isoindolin-1-ylmethyl)amino)butyl)amino)-N-(thiazol-2-yl)benzenesulfonamide]"
10,21 nM,"O=S(=O)(Nc1nccs1)c1cc(Cl)c(NCCCCN2CC[C@@H]3CCNC[C@@H]32)cc1F [Ex 1-21, 5-chloro-2-fluoro-4-({4-[(3a5,7aR)-octahydro-1H-pyrrolo[2,3-c]pyridin-1-yl]butyl}amino)-N-1,3-thiazol-2-ylbenzenesulfonamide]"
11,21 nM,"NCc1ccccc1CNCCCCNc1cc(F)c(S(=O)(=O)Nc2nccs2)cc1Cl [Ex 3-4, 4-((4-((2-(aminomethyl)benzyl)amino)butyl)amino)-5-chloro-2-fluoro-N-(thiazol-2-yl)benzenesulfonamide]"
12,16 nM,"NCC(NCCCCNc1cc(F)c(S(=O)(=O)Nc2nccs2)cc1Cl)c1ccccc1 (stereo not shown) [Ex 1-32, 4-({4-[(2-amino-1-phenylethyl)amino]butyl}amino)-5-chloro-2-fluoro-N-1,3-thiazol-2-ylbenzenesulfonamide]"
13,44 nM,"O=S(=O)(Nc1nccs1)c1cc(Cl)c(NCCCCN2CCC3(CCNC3)C2)cc1F (stereo not shown) [Ex 1-38, 5-chloro-4-{[4-(2,7-diazaspiro[4.4]non-2-yl)butyl]amino}-2-fluoro-N-1,3-thiazol-2-ylbenzenesulfonamide]"
14,30 nM,"NC1CN(CCCCNc2cc(F)c(S(=O)(=O)Nc3ncns3)cc2Cl)C1 [Ex 16-38, 4-{[4-(3-aminoazetidin-1-yl)-butyl]amino}-5-chloro-2-fluoro-N-1,2,4-thiadiazol-5-yl-benzenesulfonamide]"
15,49 nM,"O=S(=O)(Nc1nccs1)c1cc(Cl)c(NCC(F)(F)CCNC[C@@H]2CCCN2)cc1F [Ex 11-11, 5-chloro-4-[(2,2-difluoro-4-{[(2S)-pyrrolidin-2-ylmethyl]amino}butyl)amino]-2-fluoro-N-1,3-thiazol-2-ylbenzenesulfonamide]"
16,66 nM,"O=S(=O)(Nc1nccs1)c1cc(Cl)c(NCCCCN2CCCC23CCNC3)cc1F (stereo not shown) [Ex 1-12, 5-chloro-4-{[4-(1,7-diazaspiro[4.4]non-1-yl)butyl]amino}-2-fluoro-N-1,3-thiazol-2-ylbenzenesulfonamide]"
17,49 nM,"O=S(=O)(Nc1nccs1)c1cc(Cl)c(NCC(F)(F)CCNC[C@H]2CCCN2)cc1F [Ex 11-12, 5-chloro-4-[(2,2-difluoro-4-{[(2R)-pyrrolidin-2-ylmethyl]amino}butyl)amino]-2-fluoro-N-1,3-thiazol-2-ylbenzenesulfonamide]"
18,11 nM,"O=S(=O)(Nc1nccs1)c1cc(Cl)c(NCCCCN[C@H]2CN[C@H](c3ccccc3)C2)cc1F [Ex 1-8, 5-chloro-2-fluoro-4-[(4-{[(3R,5S)-5-phenylpyrrolidin-3-yl]amino}butyl)amino]-N-1,3-thiazol-2-ylbenzenesulfonamide]"
19,13 nM,"CN[C@@H]1CCN(CCCCNc2cc(F)c(S(=O)(=O)Nc3ncc(F)s3)cc2Cl)C1 [Ex 16-54, 5-chloro-2-fluoro-N-(5-fluoro-1,3-thiazol-2-yl)-4-({4-[(3R)-3-(methylamino)-pyrrolidin-1-yl]butyl}-amino)-benzenesulfonamide]"
20,110 nM,"O=S(=O)(Nc1nccs1)c1cc(Cl)c(NCCCCN2CCC23CCCNC3)cc1F (stereo not shown) [Ex 1-40, 5-chloro-4-{[4-(1,6-diazaspiro[3.5]non-1-yl)-butyl]amino}-2-fluoro-N-1,3-thiazol-2-yl-benzenesulfonamide]"
21,19 nM,"N[C@H]1CCN(CCCCNc2cc(F)c(S(=O)(=O)Nc3nccs3)cc2Cl)C1 [Ex 1-11, 4-({4-[(3S)-3-aminopyrrolidin-1-yl]butyl}amino)-5-chloro-2-fluoro-N-1,3-thiazol-2-ylbenzenesulfonamide]"
22,11 nM,"Cc1cc(S(=O)(=O)Nc2ncc(F)s2)c(F)cc1NCCCCN[C@@H]1CCNC1 [Ex 16-43, 2-fluoro-N-(5-fluoro-1,3-thiazol-2-yl)-5-methyl-4-({4-[(3R)-pyrrolidin-3-ylamino]-butyl}amino)benzene-sulfonamide]"
23,12 nM,"O=S(=O)(Nc1ncc(F)s1)c1cc(Br)c(NCCCCN2C[C@H]3CCCN[C@H]3C2)cc1F [Ex 16-44, 5-bromo-2-fluoro-N-(5-fluoro-1,3-thiazol-2-yl)-4-({4-[(4aR,7aR)-octahydro-6H-pyrrolo[3,4-b]pyridin-6-yl]butyl}amino)benzene-sulfonamide]"
24,12 nM,"O=S(=O)(Nc1ncns1)c1cc(Cl)c(NCCCCN2C[C@H]3CCCN[C@H]3C2)cc1F [Ex 16-31, 5-chloro-2-fluoro-4-({4-[(4aR,7aR)-octahydro-6H-pyrrolo[3,4-b]pyridin-6-yl]-butyl}amino)-N-1,2,4-thiadiazol-5-ylbenzene-sulfonamide]"
25,13 nM,"O=S(=O)(Nc1nccs1)c1cc(Cl)c(NCCCCNC[C@@H]2CC[C@H](c3ccccc3)N2)cc1F [Ex 8-3, 5-chloro-2-fluoro-4-{[4-({[(2S,5R)-5-phenylpyrrolidin-2-yl]methyl}-amino)butyl]-amino}-N-1,3-thiazol-2-yl-benzenesulfonamide]"
26,66 nM,"O=S(=O)(Nc1nccs1)c1cc(Cl)c(NCCCCNC[C@H]2CC(F)(F)CN2)cc1F [Ex 8-15, 5-chloro-4-{[4-({[(2R)-4,4-difluoropyrrolidin-2-yl]-methyl}amino)butyl]amino}-2-fluoro-N-1,3-thiazol-2-yl-benzenesulfonamide]"
27,19 nM,"NC[C@H]1CCN1CCCCNc1cc(F)c(S(=O)(=O)Nc2ncc(F)s2)cc1Cl [Ex 16-10, 4-({4-[(2R)-2-(aminomethyl)azetidin-1-yl]-butyl}amino)-5-chloro-2-fluoro-N-(5-fluoro-1,3-thiazol-2-yl)-benzene-sulfonamide]"
28,44 nM,"O=S(=O)(Nc1nccs1)c1cc(Cl)c(NCCCCNC2C[C@@H]3CN[C@H]2C3)cc1F (stereo partly drawn) [Ex 16-42, 4-({4-[(1S,4R)-2-azabicyclo[2.2.1]hept-6-yl-amino]butyl}amino)-5-chloro-2-fluoro-N-1,3-thiazol-2-ylbenzene-sulfonamide]"
